Like-named read-outs stand apart in the source and are kept apart here.
Target: T1, mitochondrial calcium/sodium antiporter (Rattus norvegicus, UniProt Q6AXS0)
T1 sequence (Q6AXS0 1-585): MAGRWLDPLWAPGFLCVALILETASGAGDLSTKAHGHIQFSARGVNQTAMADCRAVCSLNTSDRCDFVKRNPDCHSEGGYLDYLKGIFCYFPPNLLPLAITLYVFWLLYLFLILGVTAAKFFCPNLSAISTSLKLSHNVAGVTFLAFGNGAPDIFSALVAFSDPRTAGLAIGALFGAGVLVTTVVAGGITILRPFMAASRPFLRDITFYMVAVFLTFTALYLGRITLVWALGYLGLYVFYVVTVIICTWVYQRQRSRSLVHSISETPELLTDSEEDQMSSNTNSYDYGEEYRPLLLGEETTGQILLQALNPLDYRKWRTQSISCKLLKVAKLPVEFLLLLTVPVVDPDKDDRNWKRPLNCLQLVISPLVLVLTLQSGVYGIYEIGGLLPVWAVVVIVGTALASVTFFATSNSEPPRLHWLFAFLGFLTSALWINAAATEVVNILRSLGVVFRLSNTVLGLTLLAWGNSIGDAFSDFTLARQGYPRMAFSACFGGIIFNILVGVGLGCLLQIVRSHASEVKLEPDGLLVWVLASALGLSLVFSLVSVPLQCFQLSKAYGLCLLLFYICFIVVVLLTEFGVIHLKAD
Experiment: Inhibition of mitochondrial calcium/sodium antiporter activity (NaCl-induced mitochondrial calcium efflux, calcium green 5N fluorescence)
Type: cell-based
Settings: digitonin-permeabilized INS-1 cells, 20 mM NaCl
Experimental: INS-1 rat insulinoma cells (see Example 16) were harvested by trypsinization, washed and resuspended at 10×10^6 cells/ml in assay buffer (250 mM sucrose, 10 mM HEPES, 2.5 mM K2HPO4, 5 mM succinate, pH 7.4) containing 0.007% digitonin, 60 μM CaCl2 and 0.05 μM calcium green 5N (Molecular Probes, Inc., Eugene, Oreg.). After a five-minute calcium loading incubation, ruthenium red (1 μM; Sigma, St. Louis, Mo.) was added to block further calcium uptake by mitochondria. Cell suspensions were dispensed into 96-well plates (100 μl per well, 1×10^6 cells per well) and candidate agents (i.e., candidate mitochondrial calcium/sodium antiporter inhibitors) were added to some sets of triplicate wells at concentrations of 1, 10 or 100 μM, while other sets of wells provided appropriate control conditions (e.g., buffer and vehicle controls). Baseline fluorescence measurements were made using a multiwell plate fluorimeter (F-MAX™, Molecular Devices Corp., Sunnyvale, Calif.; or PolarStar™, BMG Labtechnologies, Inc., Durham, N.C.) according to the manufacturer's instructions. Calcium efflux from mitochondria was then induced by adding NaCl to all wells to achieve a final concentration of 20 mM, and the rate of change in fluorescence in each well was monitored […] for two minutes and quantified using software included with the plate reader.

[1] = Table 2, preferred compounds, read-out: IC50 ≦ 10 μM
[2] = Table 3, more preferred compounds, read-out: IC50 ≦ 1 μM

Row | SMILES | IC50 [2] [µM] | IC50 [1] [µM] | IC50 (IC50 ≦ 1 μM, Table 3, more preferred compounds) [µM] | IC50 (IC50 ≦ 10 μM, Table 2, preferred compounds) [µM]
1 | Nc1ccc(Cl)cc1C(SCCNC(=O)c1cccc(Br)c1)c1ccccc1Cl (stereo not shown) [Compound 16e] | ≤ 1 | ≤ 10 | – | –
2 | COC1CCC(C(=O)NCCSC(c2cc(Cl)ccc2N)c2ccccc2Cl)CC1 (stereo not shown) [Compound 16f] | ≤ 1 | ≤ 10 | – | –
3 | Nc1ccc(Cl)cc1C(SCCNC(=O)c1ccc([N+](=O)[O-])cc1)c1ccccc1Cl (stereo not shown) [Compound 16g] | ≤ 1 | ≤ 10 | – | –
4 | Nc1ccc(Cl)cc1C(SCCNC(=O)C1CCC1)c1ccccc1Cl (stereo not shown) [Compound 16h] | ≤ 1 | ≤ 10 | – | –
5 | Nc1ccc(Cl)cc1C(SCCNC(=O)C1CCCCC1)c1ccccc1Cl (stereo not shown) [Compound 16i] | ≤ 1 | ≤ 10 | – | –
6 | CC(C)C(=O)NCCSC(c1cc(Cl)ccc1N)c1ccccc1Cl (stereo not shown) [Compound 16j] | ≤ 1 | ≤ 10 | – | –
7 | Nc1ccc(Cl)cc1C(SCCNC(=O)c1cccnc1)c1ccccc1Cl (stereo not shown) [Compound 16k] | ≤ 1 | ≤ 10 | – | –
8 | Nc1ccc(Cl)cc1C(SCCNC(=O)COc1ccccc1)c1ccccc1Cl (stereo not shown) [Compound 16l] | ≤ 1 | ≤ 10 | – | –
9 | Nc1ccc(Cl)cc1C(SCCNC(=O)c1ccccn1)c1ccccc1Cl (stereo not shown) [Compound 16m] | ≤ 1 | ≤ 10 | – | –
10 | COc1cc(C(=O)NCCSC(c2cc(Cl)ccc2N)C2CCCCC2)cc(OC)c1O (stereo not shown) [Compound 16p] | – | ≤ 10 | – | –
11 | Nc1ccc(Cl)cc1C(SCCNC(=O)c1cn[nH]c1)C1CCCCC1 (stereo not shown) [Compound 16v] | – | ≤ 10 | – | –
12 | Nc1ccc(Cl)cc1C(SCCNC(=O)c1ccc(S(N)(=O)=O)cc1)C1CCCCC1 (stereo not shown) [Compound 16y] | – | ≤ 10 | – | –
13 | Nc1ccc(Cl)cc1C(SCCNC(=O)Nc1cccc(F)c1)c1ccccc1Cl (stereo not shown) [Compound 17a] | – | ≤ 10 | – | –
14 | Nc1ccc(Cl)cc1C(SCCNC(=O)Nc1ccccc1OC(F)(F)F)c1ccccc1Cl (stereo not shown) [Compound 17b] | ≤ 1 | ≤ 10 | – | –
15 | Nc1ccc(Cl)cc1C(SCCNC(=O)Nc1cc(F)ccc1F)c1ccccc1Cl (stereo not shown) [Compound 17d] | – | ≤ 10 | – | –
16 | Nc1ccc(Cl)cc1C(SCCNC(=O)Nc1cccc(Cl)c1Cl)c1ccccc1Cl (stereo not shown) [Compound 17e] | – | ≤ 10 | – | –
17 | COc1ccc(NC(=O)NCCSC(c2cc(Cl)ccc2N)c2ccccc2Cl)c(OC)c1 (stereo not shown) [Compound 17f] | ≤ 1 | ≤ 10 | – | –
18 | Nc1ccc(Cl)cc1C(SCCNS(=O)(=O)c1ccccc1)c1ccccc1Cl (stereo not shown) [Compound 18b] | ≤ 1 | ≤ 10 | – | –
19 | Nc1ccc(Cl)cc1C(SCCNS(=O)(=O)c1ccccc1[N+](=O)[O-])c1ccccc1Cl (stereo not shown) [Compound 18c] | ≤ 1 | ≤ 10 | – | –
20 | Nc1ccc(Cl)cc1C(SCCNS(=O)(=O)c1ccc(OC(F)(F)F)cc1)c1ccccc1Cl (stereo not shown) [Compound 18d] | – | ≤ 10 | – | –

Row | SMILES | IC50 [2] [µM] | IC50 [1] [µM] | IC50 (IC50 ≦ 1 μM, Table 3, more preferred compounds) [µM] | IC50 (IC50 ≦ 10 μM, Table 2, preferred compounds) [µM]
21 | CS(=O)(=O)NCCSC(c1cc(Cl)ccc1N)c1ccccc1Cl (stereo not shown) [Compound 18e] | ≤ 1 | ≤ 10 | – | –
22 | COC(=O)CSCC(c1cc(Cl)ccc1N)c1ccccc1Cl (stereo not shown) [Compound 20a] | – | ≤ 10 | – | –
23 | NC(=O)CSCC(c1cc(Cl)ccc1N)c1ccccc1Cl (stereo not shown) [Compound 21a] | – | ≤ 10 | – | –
24 | NC(=O)CSCC(c1ccccc1)c1cc(Cl)ccc1N (stereo not shown) [Compound 21d] | ≤ 1 | ≤ 10 | – | –
25 | CNC(=O)CSCC(c1cc(Cl)ccc1N)c1ccccc1Cl (stereo not shown) [Compound 21e] | ≤ 1 | ≤ 10 | – | –
26 | CNC(=O)CSCC(c1cc(Cl)ccc1N)c1ccccc1F (stereo not shown) [Compound 21f] | ≤ 1 | ≤ 10 | – | –
27 | CNC(=O)CSCC(c1cc(Br)ccc1N)c1ccccc1F (stereo not shown) [Compound 21g] | – | ≤ 10 | – | –
28 | Cc1noc(CSCC(c2cc(Br)ccc2N)c2ccccc2F)n1 (stereo not shown) [Compound 22c] | – | ≤ 10 | – | –
29 | COC(=O)C(c1cccc(Cl)c1)c1ccccc1[N+](=O)[O-] (stereo not shown) [Compound 25a] | – | ≤ 10 | – | –
30 | COC(=O)C(c1ccccc1)c1ccccc1[N+](=O)[O-] (stereo not shown) [Compound 25c] | – | ≤ 10 | – | –
31 | COC(=O)C(c1ccccc1[N+](=O)[O-])c1cccc2ccccc12 (stereo not shown) [Compound 25d] | ≤ 1 | ≤ 10 | – | –
32 | CNC(=O)C(c1cccc(Cl)c1)c1ccccc1[N+](=O)[O-] (stereo not shown) [Compound 26a] | – | ≤ 10 | – | –
33 | O=[N+]([O-])c1ccccc1C(CNCCc1ccccc1)c1cccc(Cl)c1 (stereo not shown) [Compound 27b] | – | – | ≤ 1 | ≤ 10
34 | COC(=O)CN(C)CC(c1cccc(Cl)c1)c1ccccc1[N+](=O)[O-] (stereo not shown) [Compound 28a] | – | ≤ 10 | – | –
35 | COC(=O)CSC(c1ccccc1C)c1ccccc1NC(=O)c1ccccc1 (stereo not shown) [Compound 34c] | – | ≤ 10 | – | –
36 | CNCCSCC(c1cc(Cl)ccc1N)c1ccccc1F (stereo not shown) [Compound 35f] | – | ≤ 10 | – | –
37 | Nc1ccc(Br)cc1C(CSCc1nc2ccccc2[nH]1)c1ccccc1F (stereo not shown) [Compound 37a] | – | ≤ 10 | – | –
38 | Cc1noc(C[S+]([O-])CC(c2cc(Cl)ccc2N)c2ccccc2Cl)n1 (stereo not shown) [Compound 38a] | – | ≤ 10 | – | –
39 | Nc1ccc(Cl)cc1C(c1ccccc1Cl)[S+]([O-])CC(=O)NCC(c1ccccc1)c1ccccc1 (stereo not shown) [Compound 38c] | ≤ 1 | ≤ 10 | – | –

Second part, led by results:

Row | IC50 [2] [µM] | SMILES | IC50 [1] [µM] | IC50 (IC50 ≦ 1 μM, Table 3, more preferred compounds) [µM] | IC50 (IC50 ≦ 10 μM, Table 2, preferred compounds) [µM]
40 | ≤ 1 | COc1ccc(C(=O)NCCSC(c2cc(Cl)ccc2N)C2CCCCC2)cc1OC (stereo not shown) [Compound 16n] | – | – | –
41 | ≤ 1 | COc1ccccc1C(=O)NCCSC(c1cc(Cl)ccc1N)C1CCCCC1 (stereo not shown) [Compound 16q] | – | – | –
42 | ≤ 1 | COc1cccc(C(=O)NCCSC(c2cc(Cl)ccc2N)C2CCCCC2)c1 (stereo not shown) [Compound 16r] | – | – | –
43 | ≤ 1 | COc1ccc(C(=O)NCCSC(c2cc(Cl)ccc2N)C2CCCCC2)cc1 (stereo not shown) [Compound 16s] | – | – | –
44 | ≤ 1 | Nc1ccc(Cl)cc1C(SCCNC(=O)c1cccnc1)C1CCCCC1 (stereo not shown) [Compound 16t] | – | – | –
45 | ≤ 1 | Nc1ccc(Cl)cc1C(SCCNC(=O)c1ccncc1)C1CCCCC1 (stereo not shown) [Compound 16u] | – | – | –
46 | ≤ 1 | Nc1ccc(Cl)cc1C(SCCNC(=O)c1ccc2c(c1)OCO2)C1CCCCC1 (stereo not shown) [Compound 16w] | – | – | –
47 | ≤ 1 | CS(=O)(=O)c1ccc(C(=O)NCCSC(c2cc(Cl)ccc2N)C2CCCCC2)cc1 (stereo not shown) [Compound 16x] | – | – | –
48 | ≤ 1 | COc1ccc(C(=O)NCCSC(c2cc(Cl)ccc2N)C(C)C)cc1OC (stereo not shown) [Compound 16z] | – | – | –
49 | ≤ 1 | COc1ccc(NC(=O)NCCSC(c2cc(Cl)ccc2N)C2CCCCC2)c(OC)c1 (stereo not shown) [Compound 17g] | – | – | –
50 | ≤ 1 | COc1cc(NC(=O)NCCSC(c2cc(Cl)ccc2N)C2CCCCC2)cc(OC)c1OC (stereo not shown) [Compound 17h] | – | – | –
51 | ≤ 1 | COc1cc(NC(=S)NCCSC(c2cc(Cl)ccc2N)C2CCCCC2)cc(OC)c1OC (stereo not shown) [Compound 17i] | – | – | –
52 | ≤ 1 | COc1ccc(NC(=O)NCCSC(c2cc(Cl)ccc2N)C2CCCCC2)cc1OC (stereo not shown) [Compound 17j] | – | – | –
53 | ≤ 1 | COc1ccc(NC(=S)NCCSC(c2cc(Cl)ccc2N)C2CCCCC2)c(OC)c1 (stereo not shown) [Compound 17k] | – | – | –
54 | ≤ 1 | COc1ccc(S(=O)(=O)NCCSC(c2cc(Cl)ccc2N)C2CCCCC2)cc1OC (stereo not shown) [Compound 18f] | – | – | –
55 | ≤ 1 | COc1ccc(S(=O)(=O)NCCSC(c2cc(F)ccc2N)C2CCCCC2)cc1OC (stereo not shown) [Compound 18g] | – | – | –
56 | ≤ 1 | COC(=O)CSCC(c1cc(Cl)ccc1N)c1ccccc1F (stereo not shown) [Compound 20b] | ≤ 10 | – | –
57 | ≤ 1 | COC(=O)CSCC(c1cc(Br)ccc1N)c1ccccc1F (stereo not shown) [Compound 20c] | ≤ 10 | – | –
58 | ≤ 1 | COC(=O)CSCC(c1ccccc1)c1cc(Cl)ccc1N (stereo not shown) [Compound 20d] | ≤ 10 | – | –
59 | ≤ 1 | CNC(=O)CSCC(c1ccccc1)c1cc(Cl)ccc1N (stereo not shown) [Compound 21h] | ≤ 10 | – | –
60 | ≤ 1 | Cc1noc(CSCC(c2cc(Cl)ccc2N)c2ccccc2Cl)n1 (stereo not shown) [Compound 22a] | ≤ 10 | – | –
61 | ≤ 1 | Cc1noc(CSCC(c2cc(Cl)ccc2N)c2ccccc2F)n1 (stereo not shown) [Compound 22b] | ≤ 10 | – | –
62 | ≤ 1 | Cc1noc(CSCC(c2ccccc2)c2cc(Cl)ccc2N)n1 (stereo not shown) [Compound 22d] | ≤ 10 | – | –
63 | ≤ 1 | CCOC(=O)C(c1ccccc1C)c1ccccc1[N+](=O)[O-] (stereo not shown) [Compound 25b] | ≤ 10 | – | –
64 | ≤ 1 | O=C(NCCc1ccccc1)C(c1cccc(Cl)c1)c1ccccc1[N+](=O)[O-] (stereo not shown) [Compound 26b] | ≤ 10 | – | –
65 | ≤ 1 | COc1ccc(S(=O)(=O)N2CCC(CSC(c3cc(Cl)ccc3N)C3CCCCC3)CC2)cc1OC (stereo not shown) [Compound 40] | – | – | –

— US6958352B2, “Compounds for inhibiting insulin secretion and methods related thereto” (SmithKline Beecham Corporation, priority 2002, dated 2005)
